Reference: patent publication US20260355150A1 (Sumitomo Pharma America, Inc., priority 2022, published 2026)

What was measured:
[1] = literature (Ardalan 2017; Cryan 2005; Koike 2014); acute treatment; cited from earlier work
[2] = Rat forced swim test, second study (one administration 24 h prior to testing); conditions: 10 mg/kg, ip, positive control, of 60 observations in 5 min, p < 0.05 vs vehicle (footnote a)
Procedure: In both procedures, rats were pre-exposed to a 15 min swim session (day 0) prior to the 5 min FST session which was conducted 24 h later (day 1).
In the second study, adult, male Sprague-Dawley rats (190-234 g, n=10 per group) were dosed on only one occasion immediately after the pre-swim i.e., 24 h prior to testing. […] Behavior was quantified during the 5 min test session using a time sampling technique where the actual behavior observed, i.e., immobility, climbing or swimming, was recorded every 5 seconds for a total of 60 observations. Results were analyzed by one way ANOVA followed by Dunnett's post hoc comparisons.

[3] = Rat learned helplessness model (active avoidance); conditions: helpless rats; for escape failures (Mean ± SEM) / inter-trial interval (ITI) crossings (Mean ± SEM): 32 mg/kg, po bid
Procedure: In this model, rats are first exposed to inescapable foot shock to induce a helpless state which is then expressed by a subsequent failure to learn to avoid escapable foot shocks (active avoidance).
Helplessness was induced on Day 1 in 5 of the groups by exposing animals to inescapable foot shocks delivered through an electrified stainless steel grid floor every 15 seconds for 1 h. […] Treatment continued on days 2-5 with all subjects receiving test agent or vehicle twice daily (AM and PM). Active avoidance was tested 60 min after the morning dose on Days 3, 4 and 5. All rats were tested in a 2-compartment active avoidance chamber where delivery of foot shock was signaled by a light cue. The test session began with 5 min of free exploration after which 30 stimulus-shock trials were delivered during a 15 min period. Each trial lasted 30 seconds with an initial 24 second rest period, followed by a 6 second light cue presentation with foot shock delivered during the last 3 seconds. […] Failure to avoid full delivery of the foot shock (i.e., failing to cross during 3 second shock presentation) was considered an escape failure. Crossings to the opposite compartment of the shuttle box during the 24 second rest period were recorded as inter-trial interval (ITI) crossings. Escape failures and ITI crossings were analyzed by two way repeated measures ANOVA with treatment as a main factor and test session (i.e., day) as the repeated measure.

Row | SMILES | antidepressant-like effects in this dosing protocol (rat FST, dosed 24 h prior to testing) [1] | Immobility frequency (Mean ± SEM) [2] | escape failures, significance ([3]; 32 mg/kg po bid) | escape failures (Mean ± SEM) ([3]; Day 3) | inter-trial interval (ITI) crossings (Mean ± SEM) ([3]; Day 3) | inter-trial interval (ITI) crossings (Mean ± SEM) ([3]; Day 4) | escape failures (Mean ± SEM) ([3]; Day 4, p < 0.05 vs helpless/vehicle (footnote a)) | inter-trial interval (ITI) crossings (Mean ± SEM) ([3]; Day 5) | escape failures (Mean ± SEM) ([3]; Day 5, p < 0.05 vs helpless/vehicle (footnote a))
1 | CNC1(c2ccccc2Cl)CCCCC1=O (stereo not drawn) [Ketamine] | antidepressant-like effects | 22.9 ± 3.5^a |  |  |  |  |  |  | 
2 | CN(C)CCCN1c2ccccc2CCc2ccccc21 [Imipramine] |  |  | significant reduction in escape failures | 3 ± 1 | 17 ± 2 | 12 ± 2 | 3 ± 2^a | 15 ± 2 | 2 ± 1^a
